Experimental data from EP2801573A1, “Hydantoine derivatives as CD38 inhibitors” (SANOFI, priority 2013, dated 2014).
Structures can show the parent of a compound that is named as a salt.

Key:
[1] = target: T1, human recombinant CD38 enzyme (Homo sapiens, UniProt P28907); experiment: Human recombinant enzyme assay (fluorimetric CD38 enzyme assay, ε-NAD substrate); assay type: biochemical; details: recombinant CD38 100 ng/ml, ε-NAD 100 µM, pH = 6.0, 37°C, reaction time 30 min; read-out: IC50 (nM) ENAD
T1 construct: purchased R&D Systems H7006
T1 sequence (P28907 1-300): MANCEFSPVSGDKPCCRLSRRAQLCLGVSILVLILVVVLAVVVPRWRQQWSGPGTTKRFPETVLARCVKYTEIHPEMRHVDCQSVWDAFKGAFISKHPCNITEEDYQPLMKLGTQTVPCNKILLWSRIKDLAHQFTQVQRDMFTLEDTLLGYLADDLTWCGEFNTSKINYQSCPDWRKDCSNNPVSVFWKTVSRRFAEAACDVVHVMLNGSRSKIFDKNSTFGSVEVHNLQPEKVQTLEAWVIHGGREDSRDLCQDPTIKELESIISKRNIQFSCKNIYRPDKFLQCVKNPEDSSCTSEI
Method: Enzyme assay on human recombinant CD38 enzyme were performed in order to determine the in vitro potency of the newly synthesized compounds. IC50 values were determined for the test compounds and used to explore the structure-activity relationships (SAR).
(§1) N6-etheno-NAD (ε-NAD), a NAD analogue previously shown to be a convenient substrate of CD38 enzyme activity (Graeff et al. J. Biol. Chem. 269, pp 30260-30367, […]) was used to measure the activity of human recombinant CD38 and cell surface enzyme activity.
A fluorimetric CD38 enzyme assay was performed as described by Graeff et al. The reaction was started with 10 µl of N6-etheno-NAD (ε-NAD) substrate, final concentration 100 µM, in a final volume of 0.1 ml buffered with 50 mM HEPES, 0.05% BRIJ, pH = 6.0 containing 100 ng/ml recombinant CD38 (R&D Systems, H7006). Cleavage of ε-NAD, which causes a 10-fold fluorescence enhancement, was continuously followed at 37°C in a BMG Polarstar spectrofluorometer at an emission wavelength of 410 nm and an excitation of 300 nm, reaction time was 30 min. NADase activity was expressed as Δ relative fluorescence/min. The rate of enzyme reactions were compared in the presence and absence of inhibitor molecule, the IC50 values were calculated with Biostat Speed program.

[2] = target: T2, natural cell surface human CD38 enzyme (Homo sapiens, UniProt P28907); experiment: Cell surface enzyme assay on A549 cells; assay type: cell-based; details: A549 human lung epithelial cells, pre-incubated 15 min, ε-NAD 100 µM, 60 min, pH=7.4
T2 construct: The A549 cells express active CD38 enzyme on the cell surface; endogenous in cells; host or cells: A549 human lung epithelial cells (ATCC CCL 185)
T2 sequence (P28907 1-300): T1 sequence (P28907 1-300)
Method: A549 human lung epithelial cells were used as enzyme source. The A549 cells express active CD38 enzyme on the cell surface.
as §1
Type II-like human lung epithelial cells A 549 (ATCC CCL 185) were grown in RPMI 1640 medium supplemented with 10% fetal calf serum, 2mM 1-glutamine and penicillin/streptomycin 1% in a humidified incubator with an atmosphere of 95% air and 5% CO2 at 37 °C. At about 70-80% confluence, cells were detached with trypsin/EDTA solution to form a cell suspension and counted. Cell viability was higher as 95% using trypan blue dye. Cells were plated at a density of 500.000 cells/well (24 well plate), before 24 hours of starting the enzyme assay. The medium was removed and replaced by assay buffer (20 mM HEPES, pH=7.4 containing 140 mM NaCl, 5 mM KCl, 1 mM MgSO4 1 mM CaCl2, 1mM Na2HPO4, 5.5 mM glucose).
A549 cells (800.000/well, 500 µl) were pre-incubated in the presence and absence of inhibitors for 15 min before the addition of ε-NAD, final substrate concentration was 100 µM. After 60 min, the plate was centrifuged and 100 µl of supernatant was removed and measured fluorimetrically in BMG Polarstar spectrofluorimeter at an emission wavelength of 410 nm and an excitation of 300 nm. The mean difference in the fluorescence between reaction stopped at 0 and 60 min was used an arbitrary unit of NADase activity. The NADase activity in the absence and presence of inhibitors were compared and IC50 values were calculated.

| IC50 [1] | IC50 [2] | Compound |
| --- | --- | --- |
| 30 nM | 181 nM | O=C1N/C(=C\c2ccncc2)C(=O)N1c1ccc(Cl)cc1 [Compound 2, 3-(4-Chloro-phenyl)-5-[1-pyridin-4-yl-meth-(Z)-ylidene]-imidazolidine-2,4-dione] |
| 57 nM | 604 nM | O=C1N/C(=C\c2ccncc2)C(=O)N1CC(F)(F)F [Compound 62, 5-[1-Pyridin-4-yl-meth-(Z)-ylidene]-3-(2,2,2-trifluoro-ethyl)-imidazolidine-2,4-dione] |
| 80 nM | 297 nM | CCCCc1ccc(N2C(=O)N/C(=C\c3ccncc3)C2=O)cc1 [Compound 24, 3-(4-Butyl-phenyl)-5-[1-pyridin-4-yl-meth-(Z)-ylidene]-imidazolidine-2,4-dione] |
| 20 nM | 137 nM | O=C1N/C(=C\c2ccncc2)C(=O)N1CC1CCOCC1 [Compound 56, 5-[1-Pyridin-4-yl-meth-(Z)-ylidene]-3-(tetrahydro-pyran-4-ylmethyl)-imidazolidine-2,4-dione] |
| 25 nM | 288 nM | CC(C)(O)CN1C(=O)N/C(=C\c2ccncc2)C1=O [Compound 61, 3-(2-Hydroxy-2-methyl-propyl)-5-[1-pyridin-4-yl-meth-(Z)-ylidene]-imidazolidine-2,4-dione] |
| 50 nM | 359 nM | O=C(c1cccc(N2C(=O)N/C(=C\c3ccncc3)C2=O)c1)N1CCOCC1 [Compound 28, 3-[3-(Morpholine-4-carbonyl)-phenyl]-5-[1-pyridin-4-yl-meth-(Z)-ylidene]-imidazolidine-2,4-dione] |
| 30 nM | 246 nM | O=C1N/C(=C\c2ccncc2)C(=O)N1CC1(O)CCCC1 [Compound 58, 3-(1-Hydroxy-cyclopentylmethyl)-5-[1-pyridin-4-yl-meth-(Z)-ylidene]-imidazolidine-2,4-dione] |
| 290 nM |  | O=C1N/C(=C\c2ccncc2)C(=O)N1CCN1CCCC1 [Compound 37, 5-[1-Pyridin-4-yl-meth-(Z)-ylidene]-3-(2-pyrrolidin-1-yl-ethyl)-imidazolidine-2,4-dione] |
| 151 nM |  | O=C1N/C(=C\c2ccncc2)C(=O)N1CCCN1CCOCC1 [Compound 44, 3-(3-Morpholin-4-yl-propyl)-5-[1-pyridin-4-yl-meth-(Z)-ylidene]-imidazolidine-2,4-dione] |
| 224 nM |  | CCOC(=O)CN1C(=O)N/C(=C\c2ccncc2)C1=O [Compound 43, {2,5-Dioxo-4-[1-pyridin-4-yl-meth-(Z)-ylidene]-imidazolidin-1-yl}-acetic acid ethyl ester] |
| 30 nM |  | O=C1N/C(=C\c2ccncc2)C(=O)N1c1ccc(F)c(F)c1 [Compound 10, 3-(3,4-Difluoro-phenyl)-5-[1-pyridin-4-yl-meth-(Z)-ylidene]-imidazolidine-2,4-dione] |
| 30 nM |  | O=C1N/C(=C\c2ccncc2)C(=O)N1c1ccccc1 [Compound 1, 3-Phenyl-5-[1-pyridin-4-yl-meth-(Z)-ylidene]-imidazolidine-2,4-dione.HCl salt] |
| 90 nM |  | CN(C)c1ccc(N2C(=O)N/C(=C\c3ccncc3)C2=O)cc1 [Compound 14, 3-(4-Dimethylamino-phenyl)-5-[1-pyridin-4-yl-meth-(Z)-ylidene]-imidazolidine-2,4-dione] |
| 36 nM |  | CCOC(=O)C1CCN(C(=O)c2ccc(N3C(=O)N/C(=C\c4ccncc4)C3=O)cc2)CC1 [Compound 54, 1-(4-{2,5-Dioxo-4-[1-pyridin-4-yl-meth-(Z)-ylidene]-imidazotidin-l-yl}-benzoyl)-piperidine-4-carboxylic acid ethyl ester] |
| 50 nM |  | O=C1N/C(=C\c2ccncc2)C(=O)N1Cc1ccccc1 [Compound 7, 3-Benzyl-5-[1-pyridin-4-yl-meth-(Z)-ylidene]-imidazolidine-2,4-dione] |
| 51 nM |  | O=C(c1ccc(N2C(=O)N/C(=C\c3ccncc3)C2=O)cc1)N1CCOCC1 [Compound 29, 3-[4-(Morpholine-4-carbonyl)-phenyl]-5-[1-pyridin-4-yl-meth-(Z)-ylidene]-imidazolidine-2,4-dione] |
| 50 nM |  | O=C1N/C(=C\c2ccncc2)C(=O)N1c1cccc(Cl)c1 [Compound 5, 3-(3-Chloro-phenyl)-5-[1-pyridin-4-yl-meth-(Z)-ylidene]-imidazolidine-2,4-dione HCl-salt] |
| 52 nM |  | O=C(c1ccc(N2C(=O)N/C(=C\c3ccncc3)C2=O)cc1)N1CCCC1 [Compound 48, 5-[1-Pyridin-4-yl-meth-(Z)-ylidene]-3-[4-(pyrrolidine-1-carbonyl)-phenyl]-imidazolidine-2,4-dione] |
| 16 nM |  | O=C1N/C(=C\c2ccncc2)C(=O)N1CC1(CO)CCCC1 [Compound 64, 3-(1-Hydroxymethyl-cyclopentylmethyl)-5-[1-pyridin-4-yl-meth-(Z)-ylidene]-imidazolidine-2,4-dione] |
| 56 nM |  | O=C(O)c1cccc(N2C(=O)N/C(=C\c3ccncc3)C2=O)c1 [Compound 27, 3-{2,5-Dioxo-4-[1-pyridin-4-yl-meth-(Z)-ylidene]-imidazolidin-1-yl}-benzoic acid] |
| 40 nM |  | CC(C)N1C(=O)N/C(=C\c2ccncc2)C1=O [Compound 21, 3-Isopropyl-5-[1-pyridin-4-yl-meth-(Z)-ylidene]-imidazolidine-2,4-dione] |
| 30 nM |  | N#Cc1ccc(N2C(=O)N/C(=C\c3ccncc3)C2=O)cc1 [Compound 11, 4-{2,5-Dioxo-4-[1-pyridin-4-yl-meth-(Z)-ylidene]-imidazolidin-1-yl} -benzonitrile] |
| 30 nM |  | CC(=O)c1cccc(N2C(=O)N/C(=C\c3ccncc3)C2=O)c1 [Compound 13, 3-(3-Acetyl-phenyl)-5-[1-pyridin-4-yl-meth-(Z)-ylidene]-imidazolidine-2,4-dione] |
| 70 nM |  | CSc1ccc(N2C(=O)N/C(=C\c3ccncc3)C2=O)cc1 [Compound 8, 3-(4-Methylsulfanyl-phenyl)-5-[1-pyridin-4-yl-meth-(Z)-ylidene]-imidazolidine-2,4-dione] |
| 100 nM |  | CC(C)(C)c1ccc(N2C(=O)N/C(=C\c3ccncc3)C2=O)cc1 [Compound 35, 3-(4-tert-Butyl-phenyl)-5-[1-pyridin-4-yl-meth-(Z)-ylidene]-imidazolidine-2,4-dione] |
| 80 nM |  | CCCN1C(=O)N/C(=C\c2ccncc2)C1=O [Compound 41, 3-Propyl-5-[1-pyridin-4-yl-meth-(Z)-ylidene]-imidazolidine-2,4-dione] |
| 400 nM |  | O=C1N/C(=C\c2ccncc2)C(=O)N1C12CC3CC(CC(C3)C1)C2 [Compound 38, 3-Adamantan-1-yl-5-[1-pyridin-4-yl-meth-(Z)-ylidene]-imidazolidine-2,4-dione] |
| 16 nM |  | O=C1N/C(=C\c2ccncc2)C(=O)N1c1ccc(F)cc1 [Compound 12, 3-(4-Fluoro-phenyl)-5-[1-pyridin-4-yl-meth-(2)-ylidene]-imidazolidine-2,4-dione] |
| 55 nM |  | CCCCCCN1C(=O)N/C(=C\c2ccncc2)C1=O [Compound 22, 3-Hexyl-5-[1-pyridin-4-yl-meth-(Z)-ylidene]-imidazotidine-2,4-dione] |
| 250 nM |  | CCOc1ccc(CCN2C(=O)N/C(=C\c3ccncc3)C2=O)cc1OCC [Compound 36, 3-[2-(3,4-Diethoxy-phenyl)-ethyl]-5-[1-pyridin-4-yl-meth-(Z)-ylidene]-imidazolidine-2,4-dione] |

| Compound | IC50 [1] | IC50 [2] |
| --- | --- | --- |
| O=C1N/C(=C\c2ccncc2)C(=O)N1c1ccc(I)cc1 [Compound 33, 3-(4-Iodo-phenyl)-5-[1-pyridin-4-yl-meth-(Z)-ylidene]-imidazolidine-2,4-dione] | 38 nM | 272 nM |
